Source: patent US9896437B2, “Diarylhydantoin compounds” (The Regents of the University of California, priority 2007, dated 2018)

Columns and labels:
[1] = test system: LNCaP cells with overexpressed AR (LN-AR); experiment: MTS assay of growth of LNCaP-AR cells
Description: LNCaP-AR cells can be maintained in Iscove's medium containing 10% FBS. The compounds are examined for their effect on growth of hormone refractory prostate cancer cells. Overexpressed LNCaP cells are used because these cells behave as hormone refractory prostate cancer cells in vitro and in vivo. Mitochondria activity by MTS assay is measured, a surrogate for growth. LNCaP cells with overexpressed AR (LN-AR) are maintained in Iscove's medium containing 10% FBS. Two days prior to drug treatment, the cells are grown in Iscove's medium containing 10% CS-FBS to deprive of androgens. The cells are then split and grown in Iscove's medium containing 10% CS-FBS with appropriate concentrations of R1881 and increasing concentrations of the test compounds. After four days incubation, cell growth is monitored by MTS (Promega, Madison, Wis.).
The inhibitory effect of compounds on growth of hormone refractory prostate cancer in the presence of 100 pM of R1881 is measured.

hormone refractory LAPC4 = experiment: Hormone refractory LAPC4 xenograft model; details: compared with vehicle
From the text: Compounds can also be tested in another xenograft model of hormone refractory prostate cancer, hormone refractory LAPC4. This model is established from passaging of hormone sensitive prostate cancer in castrated mice, which mimics the clinical progression of prostate cancer.

androgen receptor (AR) [2] = target: androgen receptor (AR) (Homo sapiens, UniProt P10275, T878A); details: parental LNCaP cells
androgen receptor (AR) (Homo sapiens, UniProt P10275, T878A), sequence (P10275 whole entry T878A): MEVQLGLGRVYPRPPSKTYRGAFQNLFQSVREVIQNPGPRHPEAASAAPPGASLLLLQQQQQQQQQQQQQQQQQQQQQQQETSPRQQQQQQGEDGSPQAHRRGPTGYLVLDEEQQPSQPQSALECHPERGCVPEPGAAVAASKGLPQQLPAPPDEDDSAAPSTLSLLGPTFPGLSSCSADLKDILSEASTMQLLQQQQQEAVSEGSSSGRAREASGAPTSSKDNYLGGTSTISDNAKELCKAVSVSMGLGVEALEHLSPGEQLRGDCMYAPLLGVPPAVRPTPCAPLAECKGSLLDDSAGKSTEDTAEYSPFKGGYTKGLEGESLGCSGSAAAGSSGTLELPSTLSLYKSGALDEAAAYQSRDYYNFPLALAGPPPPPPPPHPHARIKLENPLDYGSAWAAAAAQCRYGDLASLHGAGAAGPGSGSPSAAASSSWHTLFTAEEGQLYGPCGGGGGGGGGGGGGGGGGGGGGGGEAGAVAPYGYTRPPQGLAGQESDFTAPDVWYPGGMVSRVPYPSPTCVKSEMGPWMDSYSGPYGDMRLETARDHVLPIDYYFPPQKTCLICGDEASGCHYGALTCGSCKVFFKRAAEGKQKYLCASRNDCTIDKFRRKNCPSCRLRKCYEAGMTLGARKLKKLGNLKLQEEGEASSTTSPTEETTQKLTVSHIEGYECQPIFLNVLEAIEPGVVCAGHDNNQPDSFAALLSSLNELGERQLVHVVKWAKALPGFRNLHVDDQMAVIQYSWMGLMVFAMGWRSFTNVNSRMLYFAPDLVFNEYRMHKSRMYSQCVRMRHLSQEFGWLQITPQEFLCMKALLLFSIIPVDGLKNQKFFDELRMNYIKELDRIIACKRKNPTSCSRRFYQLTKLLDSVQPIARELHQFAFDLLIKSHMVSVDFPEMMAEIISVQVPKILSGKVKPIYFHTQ

androgen receptor (AR) [3] = format: cell-based
From the text: For example, the compounds can be subjected to tests using an artificial androgen receptor (AR) response reporter system in a hormone refractory prostate cancer cell line. The prostate cancer LNCaP cells are engineered to stably express about 5-fold higher level of AR than endogenous level. The exogenous AR has similar properties to endogenous AR in that both are stabilized by a synthetic androgen R1881. […] The antagonistic activity of the compounds for which the synthesis is described above can be examined in the presence of 100 pM of R1881. Engineered LNCaP cells (LNCaP-AR, also abbreviated LN-AR) are maintained in Iscove's medium containing 10% fetal bovine serum (FBS). Two days prior to drug treatment, the cells are grown in Iscove's medium containing 10% charcoal-stripped FBS (CS-FBS) to deprive of androgens. The cells are split and grown in Iscove's medium containing 10% CS-FBS with 100 pM of R1881 and increasing concentrations of test compounds. After two days of incubation, reporter activities are assayed.
To determine agonistic activities of different compounds, the stimulating activities on androgen receptor (AR) using the AR response reporter as the measure in the LN-AR system in the absence of R1881 can be examined.

LNCaP cells = experiment: MTS assay of growth of parental, hormone sensitive LNCaP cells
androgen receptor (AR) [4] = format: cell-based; remark: listed apart in the source
From the text: The LNCaP-AR cells are a line of lymph node carcinoma of prostate cells transduced with a plasmid that makes express androgen receptors.

Compound: CC(O)(CS(=O)(=O)c1ccc(F)cc1)C(=O)Nc1ccc(C#N)c(C(F)(F)F)c1 (stereo not shown) [Bicalutamide]
- inhibitory effect on growth of hormone refractory prostate cancer ([1]; presence of 100 pM of R1881, MTS): does not inhibit
- inhibition of PSA expression (hormone refractory LAPC4): does not inhibit
- inhibition of growth (hormone refractory LAPC4): does not inhibit

Compound: C[C@]1(O)CC[C@H]2[C@@H]3CCC4=CC(=O)CCC4=C3C=C[C@@]21C [R1881]
- concentration that stimulates growth ([1]; AR-overexpressed LNCaP, MTS): 25 µM
- concentration at which PSA is first induced (androgen receptor (AR) [2]): 100 pM
- reporter activity response to androgen (androgen receptor (AR) [3]; LNCaP-AR cells): responds to low concentration
- concentration at which growth is first stimulated (LNCaP cells): 100 µM
- concentration that strongly induces the secreted PSA level (androgen receptor (AR) [4]; LNCaP-AR cells): 25 pM

Compound: CC1(C)C(=O)N(c2ccc(C#N)c(C(F)(F)F)c2)C(=S)N1CCCCO [RU59063]
- agonistic activity on AR (AR response reporter) (androgen receptor (AR) [3]; LN-AR system, hormone refractory, absence of R1881): can activate AR
- stimulation of PSA expression (agonistic activity) (androgen receptor (AR) [4]; hormone refractory prostate cancer, absence of R1881): can stimulate PSA expression
